Reference: PubChem BioAssay AID248 (DTP/NCI, 2004)
Values joined by “and” are separate entries in the source; they are usually repeats but may differ in a detail not shown here. Equal entries are not always repeated. Toxic doses and inconclusive results are not listed. No stated cut-off is given here; in the data, active means T/C of 150% or more; inactive means T/C below 125%.

System: L1210 leukemia ip in BDF1 mice, survival T/C
Assay: NCI In Vivo Anticancer Drug Screen. Data for tumor model L1210 Leukemia (intraperitoneal) in B6D2F1 (BDF1) mice
Conditions: endpoint: mean survival time, higher = longer survival
In short: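 Each compound was tested against a transplantable tumor grown in mice. The endpoint was survival, with treated animals benchmarked against vehicle controls as a simple ratio.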

[1] = dose: 100.0 mg/kg/injection, schedule: Q01DX009 (ip), vehicle: saline
[2] = dose: 100.0 mg/kg/injection, schedule: Q04DX003 (ip), vehicle: saline
[3] = dose: 200.0 mg/kg/injection, schedule: Q01DX009 (ip), vehicle: saline
[4] = dose: 200.0 mg/kg/injection, schedule: Q04DX003 (ip), vehicle: saline
[5] = dose: 400.0 mg/kg/injection, schedule: Q04DX003 (ip), vehicle: saline
[6] = dose: 100.0 mg/kg/injection, schedule: Q04DX002 (ip), vehicle: saline
[7] = dose: 200.0 mg/kg/injection, schedule: Q04DX002 (ip), vehicle: saline
[8] = dose: 100.0 mg/kg/injection, schedule: Q01DX009 (ip), vehicle: saline with Tween-80
[9] = dose: 100.0 mg/kg/injection, schedule: Q04DX003 (ip), vehicle: saline with Tween-80
[10] = dose: 200.0 mg/kg/injection, schedule: Q01DX009 (ip), vehicle: saline with Tween-80
[11] = dose: 200.0 mg/kg/injection, schedule: Q04DX003 (ip), vehicle: saline with Tween-80
[12] = dose: 400.0 mg/kg/injection, schedule: Q01DX009 (ip), vehicle: saline with Tween-80
[13] = dose: 400.0 mg/kg/injection, schedule: Q04DX003 (ip), vehicle: saline with Tween-80
[14] = dose: 100.0 mg/kg/injection, schedule: Q01DX001 (ip), vehicle: saline with Tween-80
[15] = dose: 100.0 mg/kg/injection, schedule: Q04DX002 (ip), vehicle: saline with Tween-80
[16] = dose: 200.0 mg/kg/injection, schedule: Q01DX001 (ip), vehicle: saline with Tween-80
[17] = dose: 200.0 mg/kg/injection, schedule: Q04DX002 (ip), vehicle: saline with Tween-80
[18] = dose: 400.0 mg/kg/injection, schedule: Q01DX001 (ip), vehicle: saline with Tween-80
[19] = dose: 400.0 mg/kg/injection, schedule: Q04DX002 (ip), vehicle: saline with Tween-80
[20] = dose: 100.0 mg/kg/injection, schedule: Q04DX003 (ip), vehicle: Klucel (hydroxypropylcellulose) (HPC)
[21] = dose: 200.0 mg/kg/injection, schedule: Q04DX003 (ip), vehicle: Klucel (hydroxypropylcellulose) (HPC)
[22] = dose: 400.0 mg/kg/injection, schedule: Q04DX003 (ip), vehicle: Klucel (hydroxypropylcellulose) (HPC)
[23] = dose: 100.0 mg/kg/injection, schedule: Q01DX009 (ip), vehicle: Klucel (hydroxypropylcellulose) (HPC)
[24] = dose: 200.0 mg/kg/injection, schedule: Q01DX009 (ip), vehicle: Klucel (hydroxypropylcellulose) (HPC)
[25] = dose: 400.0 mg/kg/injection, schedule: Q01DX009 (ip), vehicle: Klucel (hydroxypropylcellulose) (HPC)
[26] = dose: 100.0 mg/kg/injection, schedule: Q01DX001 (ip), vehicle: saline
[27] = dose: 200.0 mg/kg/injection, schedule: Q01DX001 (ip), vehicle: saline
[28] = dose: 400.0 mg/kg/injection, schedule: Q01DX001 (ip), vehicle: saline

Measured: T/C

CC1(C)CC(=O)c2c(cc3c(c2O)C(=O)CC(C)(C)O3)O1
inactive: [1] 94 % of control | [2] 100 % of control | [3] 94 % of control | [4] 94 % of control | dose: 400.0 mg/kg/injection, schedule: Q01DX009 (ip), vehicle: saline 95 % of control | [5] 106 % of control

CCN(CC)CCCNCC(Cc1ccccc1)c1ccccc1 (centres undefined)
inactive: [6] 92 % of control | [7] 99 % of control

COC(OC)c1nc(N)[nH]c(=O)c1Cc1ccc(C)c2ccccc12
inactive: [8] 96 % of control | [9] 103 % of control | [10] 90 % of control | [11] 97 % of control | [12] 90 % of control | [13] 92 % of control

O=C(/C=C/c1ccccc1)NC(=S)Nc1ccc(CCO)cc1
inactive: dose: 50.0 mg/kg/injection, schedule: Q01DX009 (ip), vehicle: saline with Tween-80 97 % of control and 111 % of control | [14] 100 % of control | [15] 96 % of control and 97 % of control | [9] 102 % of control | [16] 88 % of control | [17] 96 % of control and 101 % of control | [11] 100 % of control | [18] 90 % of control | [12] 93 % of control and 95 % of control | [19] 104 % of control | [13] 87 % of control

CC(O)C(Cc1ccccc1)NC(=O)C(=O)NC(Cc1ccccc1)C(C)O (centres undefined)
inactive: [20] 95 % of control | [21] 90 % of control | [22] 92 % of control

Cc1ccc(S(=O)(=O)OCCCCOS(=O)(=O)c2ccc(C)cc2)cc1
inactive: [23] 99 % of control | [20] 91 % of control | [24] 89 % of control | [21] 100 % of control | [25] 100 % of control | [22] 105 % of control

CC(O)(CC(c1ccccc1)N1CCc2ccccc2C1)c1ccccc1 (centres undefined)
inactive: [2] 105 % of control | [4] 102 % of control | [5] 96 % of control

N=c1nc(N)nc2c3ccccc3nnn12
inactive: dose: 75.0 mg/kg/injection, schedule: Q01DX001 (ip), vehicle: other 105 % of control | dose: 150.0 mg/kg/injection, schedule: Q01DX001 (ip), vehicle: other 106 % of control

CCN(CC)C(=O)C1C2C=CC(CC2)C1C(=O)N(CC)CC (centres undefined)
inactive: [2] 100 % of control | [4] 96 % of control | [5] 96 % of control

O=C(CCl)NCC(NC(=O)CCl)C(=O)O (centres undefined)
inactive: [6] 115 % of control | [7] 105 % of control | dose: 400.0 mg/kg/injection, schedule: Q04DX002 (ip), vehicle: saline 112 % of control

CCCCCCCCCCCCCCCCCCNC(=O)C[N+](C)(C)Cc1ccccc1
inactive: dose: 3.13 mg/kg/injection, schedule: Q01DX009 (ip), vehicle: saline with Tween-80 93 % of control | dose: 6.25 mg/kg/injection, schedule: Q01DX009 (ip), vehicle: saline with Tween-80 98 % of control | dose: 12.5 mg/kg/injection, schedule: Q01DX009 (ip), vehicle: saline with Tween-80 89 % of control

COc1cc([N+](=O)[O-])ccc1NC(=O)Nc1ccc(S(N)(=O)=O)cc1
inactive: [14] 98 % of control | [8] 103 % of control and 107 % of control | [15] 100 % of control and 102 % of control | [16] 90 % of control | [10] 92 % of control and 103 % of control | [17] 99 % of control and 86 % of control | [18] 91 % of control | [12] 94 % of control and 96 % of control | [19] 94 % of control

CN(C)/C=N\N(c1ccccc1)c1ccccc1
inactive: [15] 106 % of control | [17] 98 % of control

CC1=C(O)C(=O)C(C2=C(O)C(=O)C(C)=C(O)C2=O)=C(O)C1=O
inactive: dose: 0.1 mg/kg/injection, schedule: Q01DX Z (ip), vehicle: carboxymethylcellulose (CMC) 111 % of control | dose: 0.2 mg/kg/injection, schedule: Q01DX Z (ip), vehicle: carboxymethylcellulose (CMC) 105 % of control | dose: 0.5 mg/kg/injection, schedule: Q01DX Z (ip), vehicle: carboxymethylcellulose (CMC) 94 % of control | dose: 1.0 mg/kg/injection, schedule: Q01DX Z (ip), vehicle: carboxymethylcellulose (CMC) 94 % of control | dose: 5.0 mg/kg/injection, schedule: Q01DX001 (ip), vehicle: carboxymethylcellulose (CMC) 103 % of control | dose: 10.0 mg/kg/injection, schedule: Q01DX001 (ip), vehicle: carboxymethylcellulose (CMC) 102 % of control | dose: 12.0 micrograms/kg/injection, schedule: Q01DX Z (ip), vehicle: carboxymethylcellulose (CMC) 101 % of control | dose: 25.0 micrograms/kg/injection, schedule: Q01DX Z (ip), vehicle: carboxymethylcellulose (CMC) 101 % of control | dose: 50.0 micrograms/kg/injection, schedule: Q01DX Z (ip), vehicle: carboxymethylcellulose (CMC) 101 % of control

CCOC(CN)C(Cl)(Cl)Cl (centres undefined)
inactive: dose: 50.0 mg/kg/injection, schedule: Q01DX009 (ip), vehicle: saline 98 % of control | [1] 98 % of control and 104 % of control | [3] 101 % of control and 116 % of control

C/C=C1/C(=O)O[C@]23C=C[C@@H]4C(C(=O)OC)=CO[C@H](O[C@@H]12)[C@@H]43
inactive: [26] 104 % of control | [27] 103 % of control | [28] 98 % of control

Nc1cc2c(cc1Cl)-c1ccccc1/C2=N\O
inactive: dose: 100.0 mg/kg/injection, schedule: Q01DX001 (ip), vehicle: carboxymethylcellulose (CMC) 110 % of control | dose: 200.0 mg/kg/injection, schedule: Q01DX001 (ip), vehicle: carboxymethylcellulose (CMC) 98 % of control | dose: 400.0 mg/kg/injection, schedule: Q01DX001 (ip), vehicle: carboxymethylcellulose (CMC) 102 % of control

C=CCCCCCCCCC(=O)NCC1CCCCO1 (centres undefined)
inactive: [8] 94 % of control | [10] 97 % of control | [12] 101 % of control

CCOC(=O)C1(C(=O)OCC)C(C)CC(O)N1C(=O)c1ccccc1[N+](=O)[O-] (centres undefined)
inactive: dose: 25.0 mg/kg/injection, schedule: Q04DX003 (ip), vehicle: Klucel (hydroxypropylcellulose) (HPC) 100 % of control | dose: 50.0 mg/kg/injection, schedule: Q04DX003 (ip), vehicle: Klucel (hydroxypropylcellulose) (HPC) 91 % of control | [20] 92 % of control

COc1ccc(Cl)cc1NC(=O)c1cccc(C(=O)Nc2cc(Cl)ccc2OC)c1
inactive: [23] 92 % of control | [20] 94 % of control | [24] 93 % of control | [21] 94 % of control | [25] 104 % of control | [22] 92 % of control

C#CC(O)(c1ccccc1)c1cc(OC)c(OC)cc1OC (centres undefined)
inactive: [9] 101 % of control | [11] 97 % of control | [13] 94 % of control

CCOC(=O)C(CCP(=O)(OCC)OCC)P(=O)(OCC)OCC (centres undefined)
inactive: dose: 12.5 mg/kg/injection, schedule: Q04DX002 (ip), vehicle: saline 99 % of control | dose: 25.0 mg/kg/injection, schedule: Q04DX002 (ip), vehicle: saline 96 % of control | dose: 50.0 mg/kg/injection, schedule: Q04DX002 (ip), vehicle: saline 115 % of control | [26] 101 % of control | [27] 95 % of control | [28] 98 % of control

Cc1cccc(C)c1NC(=O)OCCOc1ccc(Br)cc1
inactive: [8] 95 % of control | [10] 92 % of control | [12] 92 % of control

CN1CCN(C(=O)OCCOCCOC(=O)N2CCN(C)CC2)CC1
inactive: dose: 150.0 mg/kg/injection, schedule: Q01DX Z (ip), vehicle: saline 108 % of control | dose: 230.0 mg/kg/injection, schedule: Q01DX Z (ip), vehicle: saline 93 % of control | dose: 350.0 mg/kg/injection, schedule: Q01DX Z (ip), vehicle: saline 100 % of control
